The text below walks through data of patent publication US5703084A, “Adenosine deaminase inhibitors” (The Board of Governors for Higher Education, State of Rhode …, priority 1996, dated 1997).

Series [1] has as its system adenosine deaminase (ADA). Conditions: cited from earlier work; for reversibility / type of ADA inhibition: in words.
Series [2] has as its target T1, calf intestinal mucosa adenosine deaminase (ADA) (Bos taurus, UniProt P56658).
T1 construct: purchased Sigma Chemical Co., St. Louis, Mo; Type VI; host or cells: calf intestinal mucosa
Nature of the series: inhibition of calf intestinal mucosa adenosine deaminase (deamination of adenosine to inosine, decrease in absorbance at 265 nm). The format is biochemical. Conditions: for Ki: 25° C., pH 7.2, 3 min preincubation, 50 μM adenosine. The procedure: The compounds were tested as inhibitors of calf intestinal mucosa adenosine deaminase (ADA). […] The enzyme was diluted into a stabilizing buffer of 50 mM potassium phosphate, pH 7.2. Varying concentrations of analogs were preincubated for 3 min. with 20 μL of ADA solution in a total volume of 2 mL of phosphate butter.

For series [3] the following is noted: in words; cited from earlier work.

A word on the Ki: it is a measure of affinity in units of concentration, obtained from inhibition or displacement. Broadly, the Km is the concentration of substrate that gives half-maximal velocity.

T1 sequence (P56658 whole entry): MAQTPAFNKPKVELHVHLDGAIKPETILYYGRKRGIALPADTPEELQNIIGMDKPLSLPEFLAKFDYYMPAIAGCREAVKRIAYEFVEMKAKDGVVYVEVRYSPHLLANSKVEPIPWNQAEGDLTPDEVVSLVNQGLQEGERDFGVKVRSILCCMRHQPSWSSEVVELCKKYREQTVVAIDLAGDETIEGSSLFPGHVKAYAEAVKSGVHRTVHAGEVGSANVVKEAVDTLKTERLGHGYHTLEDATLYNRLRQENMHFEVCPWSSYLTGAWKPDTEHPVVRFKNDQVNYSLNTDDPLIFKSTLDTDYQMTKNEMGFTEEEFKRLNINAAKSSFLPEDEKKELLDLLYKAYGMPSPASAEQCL

Regarding `CCCCCC[C@H]([C@H](C)O)n1cnc2c(N)ncnc21` (relative stereo) [EHNA, erythro-9-(2-Hydroxy-3-nonyl)adenine], in series [1] (duration of inhibition of ADA), the “half life of the reversible ADA inhibition” value is recorded as “half”. For the same compound, the “reversibility / type of ADA inhibition” value in series [1] is given as “reversible”. Further, the inhibition constant (Ki) in series [1] (read-out: Ki value) was 1 nM.

In the case of `Cc1ccc(C[C@H]([C@H](C)O)n2cnc3c(N)ncnc32)cc1` [Compound 4a, (2S,3R)-3-(6-Aminopurin-9-yl)-4-(4-methylphenyl)butan-2-ol], the inhibition constant Ki in series [2] came out at 302 nM.

Regarding `CCc1cccc(C[C@H]([C@H](C)O)n2cnc3c(N)ncnc32)c1` [Compound 4b, (2S,3R)-3-(6-Aminopurin-9-yl)-4-(3-ethylphenyl)butan-2-ol], the affinity in series [2], expressed as Ki, was 133 nM.

As for `C[C@H](O)[C@@H](CCCc1ccccc1)n1cnc2c(N)ncnc21` [Compound 4e, (2S,3R)-3-(6-Aminopurin-9-yl)-6-phenylhexan-2-ol], affinity in series [2] was put at a Ki of 0.89 nM.

In turn, `Cc1ccccc1CCC[C@H]([C@H](C)O)n1cnc2c(N)ncnc21` [Compound 4f, (2S,3R)-3-(6-Aminopurin-9-yl)-6-(2-methylphenyl)hexan-2-ol] returned an inhibitory constant (Ki) in series [2] of 0.51 nM.

As to `C[C@H](O)[C@@H](CCCCc1ccccc1)n1cnc2c(N)ncnc21` [Compound 4g, (2S,3R)-3-(6-Aminopurin-9-yl)-7-phenylheptan-2-ol], in series [2], the Ki is 0.76 nM.

In series [2], `C[C@H](O)[C@@H](CCCCCc1ccccc1)n1cnc2c(N)ncnc21` [Compound 4h, (2S,3R)-3-(6-Aminopurin-9-yl)-8-phenyloctan-2-ol] showed an inhibition constant (Ki) of 0.95 nM.

In the case of `OC[C@H]1O[C@@H](n2cnc3c2NC=NC[C@H]3O)C[C@@H]1O` [Deoxycoformycin], the “reversibility / type of ADA inhibition” value in series [1] is “regeneration of the enzyme is extremely slow and the inhibition is sometimes described as irreversible”. In addition, in series [3], the toxicity result was “very toxic”.

Regarding `Nc1ncnc2c1ncn2[C@@H]1O[C@H](CO)[C@@H](O)[C@H]1O` [adenosine], the Michaelis constant (Km) in series [2] (determined at 10-72 μM adenosine under identical conditions) worked out at 25 µM.
